The source of these data is patent US20200197355A1, “METHODS, COMPOSITIONS AND CONTAINERS FOR REDUCING SOLID FORM QUERCETIN DEGRADATION AND 2-(3,4-DIHYDROXYBENZOYLOXY)-4,6-DIHYDROXYBENZOIC ACID TOXIC BYPRODUCTS THEREOF” (PUBLIC JOINT STOCK COMPANY "SCIENTIFICINDUSTRIALCENTRE …, priority 2018, published 2020).

Data set [1] deals with MDA-MB231 human breast cancer cells. Briefly: Toxicity of DB-DBA, CellTiter 96 AQueous One Solution cell viability assay, 72 h. Type of data set: cell-based. Particulars: Homo sapiens, MDA-MB-231; MDA-MB231, 72 h, 37° C. As to the method:
(§1) Toxicity of DB-DBA (2-(3,4-dihydroxybenzoyloxy)-4,6-dihydroxybenzoic acid) was assessed in 96-well plates (Thermofisher, Walthman, Mass.) on 1×10^3 MDA-MB231 human breast cancer cells/well. DB-DBA was diluted to concentrations from 500 to 20 ug/ml. The plate was incubated at 37° C. for 72 h. Cell viability was measured in a CellTiter 96® AQueous One Solution Cell Proliferation Assay (Promega, Madison, Wis.), according to the manufacturer's protocol.

Test in data set [2]: as above
The data set is classed as cell-based, human. Particulars: human, MDA-MB231 breast cancer cells, 72 h. The procedure:
as §1

Data set [3] deals with retinal pigmented epithelial cells (ARPE-19). Particulars: cited from earlier work.
The test system of data set [4] is human lymphoblastoid cell line K562. Particulars: cited from earlier work.
The test system of data set [5] is human lymphoblastoid TK6 cells. Particulars: cited from earlier work.
The subject of data set [6] is human lymphoblastoid TK6 cells. Particulars: cited from earlier work. This is another data set of the same source.
For data set [7] the following is noted: humans, cited from earlier work.

≈ marks a conversion by molar mass, not a printed value.

In turn, `O=C(Oc1cc(O)cc(O)c1C(=O)O)c1ccc(O)c(O)c1` [DB-DBA, 2-(3,4-dihydroxybenzoyloxy)-4,6-dihydroxybenzoic acid] gave an IC50 in data set [1] of 75 mg/L (≈ 245 µM). This molecule also gave a viability at 72 h, 20 microgram/ml in data set [2] (DB-DBA 20 microgram/ml) of 95%. The molecule further yielded a viability at 72 h, 50 microgram/ml in data set [2] (DB-DBA 50 microgram/ml) of 62%. This molecule also gave a viability at 72 h, 100 microgram/ml in data set [2] (DB-DBA 100 microgram/ml) of 41%. This molecule also showed a viability at 72 h, 250 microgram/ml in data set [2] (DB-DBA 250 microgram/ml) of 19%. The molecule further yielded a viability at 72 h, 500 microgram/ml in data set [2] (DB-DBA 500 microgram/ml) of 10%.
For `O=C(O)c1cc(O)c(O)c(OC(=O)c2cc(O)c(O)c(O)c2)c1` [DGA, Digallic acid], in data set [3], the “IC50 (cytotoxicity)” value is listed as 47 microgram/ml. Moreover, in data set [4], the “concentrations causing DNA fragmentation” value was 200-800 microgram/ml. In addition, the “concentrations causing DNA fragmentation, caspase-3/8 activation and PARP cleavage” value in data set [5] is given as 2.5-10 microgram/ml. Also, the “IC50 by MTT assay” value in data set [6] was 8.5 microgram/ml.
Take `O=c1c(O)c(-c2ccc(O)c(O)c2)oc2cc(O)cc(O)c12` [quercetin, 2-(3,4-dihydroxyphenyl)-3,5,7-trihydroxy-4H-chromen-4-one]: the elimination half-life in data set [7] (after ingestion in foods or supplements) is 1 to 2 h. For the same molecule, the bioavailability in data set [7] is 0-50%.
